These results are taken from PMC4646422 (ACS chemical biology, 2015).

Structures are written as SMILES. Values joined by “and” are separate entries in the source; they are usually repeats but may differ in a detail not shown here. Equal entries are not always repeated. Where two headings read alike, the source gives them in different places.

The format of data set [1] is physicochemical. As to conditions: for radius: DLS, 25 °C, at twice the compound's CAC; for radius / CAC (critical aggregation concentration): ND = not detected to precipitation limit; for CAC (critical aggregation concentration): dynamic light scattering, 50 mM KPi pH 7.0, 1% DMSO; for particle formation observed by DLS: up to solubility limits; for concentration at which the molecule may aggregate: authors' summary in the discussion.

Data set [2] deals with malate dehydrogenase (MDH). Put plainly: Malate dehydrogenase. The conditions noted are these: for inhibition of MDH (in words): counter-screening enzyme. The format is biochemical. On the technique in general: The purpose of a counterscreen is to sort out artefacts and off-target activity.
The next data set concerns CYP3A4. The conditions noted are these: read-out: EC50, CYP3A4; representative literature value; cited from earlier work.
The subject of a further data set is P-glycoprotein. As to conditions: read-out: EC50, P-glycoprotein; representative literature value; cited from earlier work.
For the next data set, the system named is CDK2. The conditions noted are these: read-out: EC50, CDK2; representative literature value; cited from earlier work.
The target of the next data set is AmpC β-lactamase (Escherichia coli, UniProt P00811). Nature of the data set: biochemical. The format is biochemical. As to conditions: for inhibition of AmpC β-lactamase (in words): counter-screening enzyme; for IC50: IC50 vs AmpC β-lactamase.
Data set [3] has as its target T1, HIV-2 protease (Human immunodeficiency virus type 2 subtype A, UniProt P04584). As to conditions: read-out: EC50, HIV-2 protease; representative literature value; cited from earlier work.
Data set [4] concerns the target T1, HIV-2 protease. Nature of the data set: HIV-2 protease inhibition assay. As to conditions: IC50 vs HIV-2 protease, 50 mM sodium acetate, pH 5.5, 200 mM sodium chloride.
The test system of another data set is HIV-1 protease. As to conditions: read-out: EC50, HIV-1 protease; representative literature value; cited from earlier work.
The next data set has as its target Ca^2+-ATPase. As to conditions: read-out: EC50, Ca^2+-ATPase; representative literature value; cited from earlier work.
For another data set, the system named is GL01. As to conditions: read-out: EC50, GL01; representative literature value; cited from earlier work.
In another data set the test system is 11 β HSD1. As to conditions: read-out: EC50, 11 β HSD1; representative literature value; cited from earlier work.
The target of data set [5] is Trypsin from porcine pancreas (Sus scrofa, UniProt P00761). Put plainly: Trypsin inhibition assay. Format: biochemical. As to conditions: IC50 vs trypsin, 50 mM potassium phosphate.
In another data set the test system is trypsin. The conditions noted are these: read-out: EC50, trypsin; representative literature value; cited from earlier work.
The next data set relates to DYRK1A and CLK1. As to conditions: read-out: EC50, DYRK1A and CLK1; representative literature value; cited from earlier work.
The subject of the next data set is AMPK. The conditions noted are these: read-out: EC50, AMPK; representative literature value; cited from earlier work.
A further data set relates to MMP. The conditions noted are these: read-out: EC50, MMP; representative literature value; cited from earlier work.
The next data set has as its system ERR. As to conditions: read-out: EC50, ERR; representative literature value; cited from earlier work.
For another data set, the system named is CDK. As to conditions: read-out: EC50, CDK; representative literature value; cited from earlier work.
For the next data set, the system named is MATE1. The conditions noted are these: read-out: EC50, MATE1; representative literature value; cited from earlier work.
A further data set has as its system OCT2. As to conditions: read-out: EC50, OCT2; representative literature value; cited from earlier work.
The test system of another data set is hCNT. The conditions noted are these: read-out: EC50, hCNT; representative literature value; cited from earlier work.
The next data set relates to PTP1B. As to conditions: read-out: EC50, PTP1B; representative literature value; cited from earlier work.
The test system of a further data set is ASICs. As to conditions: read-out: EC50, ASICs; representative literature value; cited from earlier work.
Another data set concerns Hsp90. The conditions noted are these: read-out: EC50, Hsp90; representative literature value; cited from earlier work.
Another data set has as its system GLUT4. As to conditions: read-out: EC50, GLUT4; representative literature value; cited from earlier work.
[6] abbreviates: read-out: IC50 vs MDH, no detergent, 50 mM potassium phosphate, pH 7.0, ND = not detected to precipitation limit.
[7] abbreviates: read-out: IC50 vs MDH, with detergent, 50 mM potassium phosphate, pH 7.0 + 0.01% (v/v) Triton X-100, ND = not detected to precipitation limit.
[8] abbreviates: read-out: IC50 vs MDH, with DTT, with 1 mM DTT.
The mark [9] stands for this setting: with detergent, pH 7.0 + 0.01% (v/v) Triton X-100.

Chain of AmpC β-lactamase (P00811 20-377): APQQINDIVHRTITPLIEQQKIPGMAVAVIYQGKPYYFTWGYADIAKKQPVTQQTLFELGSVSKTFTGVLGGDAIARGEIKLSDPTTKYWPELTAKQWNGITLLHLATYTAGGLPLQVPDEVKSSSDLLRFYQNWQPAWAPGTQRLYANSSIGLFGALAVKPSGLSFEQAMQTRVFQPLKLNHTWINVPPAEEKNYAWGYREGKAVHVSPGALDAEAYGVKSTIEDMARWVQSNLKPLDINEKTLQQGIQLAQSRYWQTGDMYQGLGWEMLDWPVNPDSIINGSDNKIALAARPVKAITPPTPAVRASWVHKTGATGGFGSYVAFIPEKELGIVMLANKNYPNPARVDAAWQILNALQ
Chain of Trypsin from porcine pancreas (P00761 9-231): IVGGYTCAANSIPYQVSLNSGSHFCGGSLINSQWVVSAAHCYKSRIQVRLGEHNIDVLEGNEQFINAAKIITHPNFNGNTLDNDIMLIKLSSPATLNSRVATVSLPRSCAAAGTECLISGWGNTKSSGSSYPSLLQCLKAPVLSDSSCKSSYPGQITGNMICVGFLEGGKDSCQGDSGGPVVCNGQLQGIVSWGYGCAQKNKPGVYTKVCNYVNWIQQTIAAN
T1 sequence (P04584 514-612 limits assumed): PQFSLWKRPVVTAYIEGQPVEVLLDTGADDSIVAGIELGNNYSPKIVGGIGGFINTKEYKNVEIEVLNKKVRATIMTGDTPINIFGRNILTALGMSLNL

What is called IC50 is the concentration that inhibits the measured activity by half. Turning to `Oc1ccc2c(c1)OC[C@]1(O)Cc3cc(O)c(O)cc3[C@H]21` [brazilin], in data set [1], the radius was determined as 52 ± 10 nm and the “CAC (critical aggregation concentration)” value was found to be 57 ± 7 µM. The IC50 in data set [2] (setting [6]) was 1.6 µM. In [2] (setting [7]), the IC50 was 84 µM.

Broadly, the EC50 is the midpoint of the concentration-response curve. On to `C[C@]12CC[C@H](O)C[C@H]1CC[C@@H]1[C@@H]2CC[C@]2(C)[C@@H](c3ccc(=O)oc3)CC[C@]12O` [bufalin], for which the radius in data set [1] is listed as 1317 ± 394 nm. Further, the “CAC (critical aggregation concentration)” value in data set [1] was found to be 51 ± 3 µM. For the same compound, the IC50 in data set [2] (setting [6]) was 101 µM; in data set [2] (setting [7]), above 200 µM. The EC50 in the data set with CYP3A4 was 14.5 µM; with P-glycoprotein it was 100 µM.

As for `COc1ccc2c(c1OC)CN1CCc3cc4c(cc3[C@@H]1C2)OCO4` [canadine], in [1], the radius worked out at 52 ± 14 nm, the “CAC (critical aggregation concentration)” value is 95 ± 11 µM and the “particle formation observed by DLS” value was “formed particles”. In addition, in [2], the “inhibition of MDH (in words)” value is on record as “did not inhibit”. Also, in the data set with CDK2, the EC50 is above 50 µM. Moreover, the “inhibition of AmpC β-lactamase (in words)” value against AmpC β-lactamase was “did not inhibit”.

Consider `COc1cc(/C=C/C(=O)CC(=O)/C=C/c2ccc(O)c(OC)c2)ccc1O` [curcumin], for which the concentration giving a half-maximal response (EC50) on HIV-2 protease [3] is 250 µM; in the data set on HIV-1 protease, 100 µM; on Ca^2+-ATPase it was around 3 µM. Moreover, in [1], the radius is 465 ± 30 nm. Also, in [1], the “CAC (critical aggregation concentration)” value is 17 µM and 17 ± 0.44 µM. Further, the concentration for half-maximal inhibition (IC50) in data set [2] (read-out: IC50 vs MDH, no DTT) is 9 µM; in [2] (setting [6]) it was 9 µM; in [2] (setting [8]), 10 µM; in [2] (setting [7]), above 30 µM; against HIV-2 protease [4] (no detergent, 1 mM EDTA and 0.5 mM TCEP), 19 µM; at HIV-2 protease [4] (with detergent, 1 mM EDTA and 0.5 mM TCEP + 0.01% (v/v) Triton X-100), above 100 µM.

As to `Oc1cc(O)c2cc(O)c(-c3cc(O)c(O)c(O)c3)[o+]c2c1` [delphinidin], the “particle formation observed by DLS” value in data set [1] is reported as “no particles were observed”. Moreover, the values for the IC50 in [2] (setting [6]) and in data set [2] (setting [7]) were 27 µM and above 100 µM, respectively. The half-maximal effective concentration (EC50) in the data set on GL01 was 1.9 µM.

On to `COc1cc2c(O)c3c(c(-c4ccc5c(c4)OCO5)c2cc1OC)C(=O)OC3` [diphyllin], for which, in data set [1], the radius is 269 ± 49 nm and the “CAC (critical aggregation concentration)” value was found to be 40 ± 4.0 µM. For the same compound, in data set [2] (setting [6]), the IC50 came out at 49 µM. Also, in data set [2] (setting [7]), the IC50 is above 200 µM.

As for `Cc1cc(O)c2c(c1)C(=O)c1cc(O)cc(O)c1C2=O` [emodin], the EC50 in the data set with 11 β HSD1 is 4.2 to 7.2 µM; in the data set with trypsin, 50 µM; with DYRK1A and CLK1 it was 4.2 to 6.1 µM; in the data set with AMPK, 0.5 µM; in the data set on MMP, 12.8 to 20.1 µM. The same compound gave a radius in [1] of 231 ± 61 nm. Also, the “CAC (critical aggregation concentration)” value in [1] came out at 28 ± 2 µM. The IC50 in [2] (read-out: IC50 vs MDH, no DTT) is 28 µM; in data set [2] (setting [6]), 28 µM; in data set [2] (setting [8]), 18 µM; in data set [2] (setting [7]), above 100 µM; in data set [5] (no detergent, pH 7.0), 49 µM; in data set [5] (setting [9]) it was above 500 µM. Besides, the IC50 against AmpC β-lactamase (no DTT) was 27 µM; against AmpC β-lactamase (with DTT, with 1 mM DTT), 17 µM.

Turning to `Oc1ccc([C@H]2COc3cc(O)ccc3C2)cc1` [equol], the EC50 with ERR was 5.8 µM. Besides, in data set [1], the “concentration at which the molecule may aggregate” value was at least 100 µM and the “particle formation observed by DLS” value is “no particles were observed”.

`O=c1c(O)c(-c2ccc(O)cc2)oc2cc(O)cc(O)c12` [kaempferol] showed a radius in data set [1] of 61 ± 20 nm. Besides, in data set [1], the “CAC (critical aggregation concentration)” value came out at 81 ± 26 µM. For the same compound, the IC50 in data set [2] (setting [6]) was 61 µM; in [2] (setting [7]) it was above 100 µM; in [5] (no detergent, pH 7.0), 110 µM; in data set [5] (setting [9]) it was above 250 µM. Further, the half-maximal effective concentration (EC50) in the data set on CDK was 2.5 to 51 µM.

As to `COc1ccc2c(c1OC)C(=O)O[C@@H]2[C@H]1c2c(cc3c(c2OC)OCO3)CCN1C` [noscapine], the EC50 was 34.5 µM in the data set with MATE1 and 2.6 µM in the data set on OCT2. Further, the “particle formation observed by DLS” value in data set [1] is on record as “no particles were observed”. Also, the “inhibition of MDH (in words)” value in data set [2] is “no inhibition”. Further, the “inhibition of AmpC β-lactamase (in words)” value on AmpC β-lactamase was “no inhibition”.

As for `O=C(CCc1ccc(O)cc1)c1c(O)cc(O)cc1O[C@@H]1O[C@H](CO)[C@@H](O)[C@H](O)[C@H]1O` [phlorizin], the “particle formation observed by DLS” value in [1] is reported as “no particles were observed”. The “inhibition of MDH (in words)” value in data set [2] is given as “no inhibition”. In addition, in the data set with hCNT, the half-maximal effective concentration (EC50) was 100 to 200 µM. The “inhibition of AmpC β-lactamase (in words)” value against AmpC β-lactamase is reported as “no inhibition”.

With `COc1cc(O)c2c(c1)C(=O)c1cc(C)cc(O)c1C2=O` [physcion], the EC50 was 20 µM with PTP1B and 26.8 to 45.3 µM with MMP. This compound also had a radius in [1] of 320 ± 83 nm. In data set [1], the “CAC (critical aggregation concentration)” value is 0.32 ± 0.025 µM. Further, the IC50 in data set [2] (read-out: IC50 vs MDH, no DTT) is 11 µM; in data set [2] (setting [6]) it was 11 µM; in data set [2] (setting [8]) it was 8 µM; in data set [2] (setting [7]), above 20 µM; on AmpC β-lactamase (no DTT), 7 µM; on AmpC β-lactamase (with DTT, with 1 mM DTT) it was 11 µM.

With `O=c1c(-c2ccc(O)cc2)coc2c([C@@H]3O[C@H](CO)[C@@H](O)[C@H](O)[C@H]3O)c(O)ccc12` [puerarin], in data set [1], the radius is 78 ± 25 nm; the “concentration at which the molecule may aggregate” value was at least 100 µM; the “CAC (critical aggregation concentration)” value is 135 µM and 135 ± 40 µM. The EC50 in the data set on ASICs was 38.4 µM. The IC50 in [2] (setting [6]) was 135 µM. Also, the IC50 in data set [2] (setting [7]) was determined as 156 µM.

For the compound `COc1cc(C2Oc3cc([C@H]4Oc5cc(O)cc(O)c5C(=O)[C@@H]4O)ccc3OC2CO)ccc1O` (stereo partly shown) [silibinin], the radius in data set [1] was 53 ± 16 nm. Moreover, the “CAC (critical aggregation concentration)” value in data set [1] came out at 0.47 ± 0.15 µM. For the same compound, the results for the IC50 in data set [2] (setting [6]) and in data set [2] (setting [7]) were 12 µM and above 100 µM, respectively. The EC50 with Hsp90 is 250 µM; in the data set with GLUT4 it was 60 µM.
